Molecular target: Galectin-3 (Homo sapiens, UniProt P17931)
Assay: Evaluation of Compound Inhibitory Activity (IC50)
Description: Briefly, compounds are serially diluted in DMSO (working dilutions). ASF-coated 384 well plates are supplemented with 22.8 uL/well of biotinylated hGal-3 or hGal-1 in assay buffer (i.e. 300-1000 ng/mL biotinylated hGal-3 or hGal-1) to which 1.2 uL of compound working dilutions are added and mixed. Plates are incubated for 3 hours at 4 C., then washed with cold assay buffer (3x50 uL), incubated for 1 hour with 25 uL/well of a streptavidin-peroxidase solution (diluted in assay buffer to 80 ng/mL) at 4 C., followed by further washing steps with assay buffer (3x50 uL). Finally, 25 µL/well of ABTS substrate is added.

Chain of Galectin-3 (P17931 whole entry): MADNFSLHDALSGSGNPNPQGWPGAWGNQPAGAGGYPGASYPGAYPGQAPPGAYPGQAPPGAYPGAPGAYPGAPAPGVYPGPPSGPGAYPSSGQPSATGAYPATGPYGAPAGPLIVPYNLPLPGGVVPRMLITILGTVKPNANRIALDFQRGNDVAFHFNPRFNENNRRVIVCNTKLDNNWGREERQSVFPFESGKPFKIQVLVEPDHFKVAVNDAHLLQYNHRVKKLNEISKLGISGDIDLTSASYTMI

Row | IC50 [nM] | SMILES
1 | 500 | CO[C@@H]1[C@@H](n2cc(-c3cc(F)c(F)c(F)c3)nn2)[C@@H](O)[C@@H](CO)O[C@@H]1CC1=NOC2(CCC(C)CC2)C1 (stereo partly drawn) [US20230295182, Example 1.30]
2 | 230 | OC[C@H]1O[C@H](CC2=NOC3(CCCCC3)C2)[C@H](OCC(F)F)[C@@H](n2cc(-c3cc(F)c(F)c(F)c3)nn2)[C@H]1O [US20230295182, Example 1.67]
3 | 46 | CO[C@@H]1[C@@H](n2cc(-c3ccc(C)c(F)c3F)nn2)[C@@H](O)[C@@H](CO)O[C@@H]1CN1CC2(CCCCC2)NC1=O [US20230295182, Example 4.01]

— BindingDB's records for patent US20230295182 (Idorsia Pharmaceuticals, 2023)
